Experimental data published in US7232805B2, “Cobalamin conjugates for anti-tumor therapy” (Inflabloc Pharmaceuticals, Inc., priority 2003, dated 2007).

Key:
[1] = system: MX-1 human breast carcinoma xenograft; experiment: tumor growth delay, MX-1 xenograft, two-cycle dosing (Example 11)
Protocol: The following procedure was used to investigate the tumor growth delay effects of the conjugate, particularly for the treatment of MX-1 human breast carcinoma xenograft in athymic mice using a two-cycle dosing regimen. Female nude Harlan mice are implanted subcutaneously with 1 mm^3 MX 1 solid tumor fragments in the flank. During the pre-dose phase of implantation and growth, tumors are initially monitored twice weekly, and then daily as the neoplasms approach the desired size of 80-120 mg. When the majority of tumors reached the targeted weight range (80-120 mg), mice are pair-matched into 5 treatment groups of 10 mice each. For purposes of this illustrationon the effect of 2-cycles of treatment, data from 3 groups are shown: no treatment, 3 mg/kg/day (days 1-5, 21-25) intravenous Doxorubicin and 24 mg/kg/day (days 1-5, 21-25) intravenous bioconjugate. Test article administration began on this day, referred to as Day 1. The tumor growth delay endpoint is reached when the tumor on the mouse reaches 1.5 gm weight estimated by the formula: Tumor weight (mg)=w^2×l/2×1 mg/mm^3, where w=width (mm) and l=length (mm) of the tumor. The median time to endpoint is calculated for each treatment group.

[2] = maximum tolerated dose of the conjugate in nude mice (Example 10); assay type: in vivo, Charles River nude (athymic) mice; details: 5 consecutive daily intravenous doses, FIG. 10
Protocol: The following procedure was used to investigate the maximum tolerated dose of the vitamin B12-doxorubicin conjugate in Charles River nude (athymic) mice. Five groups of 5 mice each were weighed and then administered the first of 5 consecutive daily doses of intravenous conjugate; dose levels were 8, 16, 32, 48 and 54 mg/kg/day. Overall toxicity was assessed by weighing the mice twice weekly starting on Day 1 of dosing (the initial dose) and by frequent inspection for clinical signs and symptoms. The NCI definition of the MTD for cancer chemotherapy in mice was adopted for this study. The desirable MTD is that dose of drug mediating a maximum mean body weight loss of ≦10% and no toxic deaths. The upper limit of the MTD is that dose causing a mean 20% weight loss in the group, and one death per 10 animals. After dosing once a day for 5 consecutive days, animals were monitored for another 5 days to address recurrent and latent toxicities.

[3] = system: SK-N-MC cells; experiment: CellTiter-Glo Luminescent Cell Viability Assay, SK-N-MC cells; assay type: cell-based, human; details: 96 hours, 100 μM down to 10 nM
From the text: FIG. 8 is a chart depicting the results of an in vitro assay of the stable conjugate against SK-N-MC cells, cells derived from a human brain neuroblastoma (neuroepithelioma) cell line. The assay employed is the CellTiter-Glo™ Luminescent Cell Viability Assay from Promega Corporation, which is recognized in the art as being predictive of the effect of a compound on cell viability. FIG. 8 depicts the results of the assay conducted according to Example 9. The method described by Promega Corporation (Technical Bulletin No. 288) was followed with no exceptions.
Doxorubicin and CobalaRubicin-200 stocks and stock solutions, prepared in 5% DMSO in water, were stored at −20° C. and protected from light. […]
After 96 hours, the effects of doxorubicin and B12-S-doxorubicin on cell viability were determined using an assay from Promega. The CellTiter-Glo™ Luminescent Cell Viability Assay quantitates the ATP present in a culture, which correlates with metabolically active cells. Luminescence, which is dependent on ATP concentration, was measured for each individual well on a Wallac MicroBeta® JET Liquid Scintillation and Luminescence Counter. The average luminescence value of the three wells containing medium alone was subtracted from the raw data values to give corrected values. […] Percent cell viability was calculated by considering the untreated cells as 100% viable. […]

[4] = system: MX-1 human breast carcinoma xenograft; experiment: tumor growth delay, MX-1 xenograft, single-cycle dosing (Example 3)
Protocol: Test articles were administered on the day of pair matching, Day 1.
The upper limit of acceptability is 20% weight loss.

[5] = lower dose than 24 mg/kg/day, data not shown
[6] = two cycles of 24 mg/kg/day intravenous
[7] = two cycles of 24 mg/kg/day intravenous, at 71 days
[8] = 32 mg/kg/day x 5 days intravenous
[9] = 32 mg/kg/day x 5 days intravenous, group of 10 mice

COc1cccc2c1C(=O)c1c(O)c3c(c(O)c1C2=O)C[C@@](O)(C(=O)CO)C[C@@H]3O[C@H]1C[C@H](NC(=O)OCc2ccc(NC(=O)[C@H](CCCCN)NC(=O)[C@H](Cc3ccccc3)NC(=O)CCCCCNC(=O)OC[C@H]3O[C@H](n4cnc5cc(C)c(C)cc54)[C@H](O)[C@@H]3OP(=O)(O)O[C@H](C)CNC(=O)CC[C@@]3(C)C4=C(C)C5=NC(=CC6=NC(=C(C)C7=N[C@@](C)([C@H](N4)[C@@H]3CC(N)=O)[C@@](C)(CC(N)=O)[C@@H]7CCC(N)=O)[C@@](C)(CC(N)=O)[C@@H]6CCC(N)=O)C(C)(C)[C@@H]5CCC(N)=O)cc2)[C@H](O)[C@H](C)O1 [conjugate 13, B12-5′-OCONH(CH2)5CO-Phe-Lys-PABC-Dox]
efficacy versus free doxorubicin on a molar equivalent basis [1, 5]: less efficacious than free doxorubicin | tumor growth versus non-treatment control [1, 5]: delay in tumor growth was observed | time to endpoint longer than control mice ([1]; two cycles of 24 mg/kg/day (days 1-5, 21-25) intravenous): 44 days | maximum body weight loss [1, 6]: 10% | treatment or nontreatment related deaths [1, 6]: no treatment or nontreatment related deaths | long-term, tumor-free survivors [1, 7]: 7 of 10 | mice that developed complete regression [1, 7]: 9 of 10 | recovery from weight loss versus native doxorubicin ([1]; two-cycle study, FIG. 12b, equivalent dose of doxorubicin in the conjugate 2-fold greater): tended recover from their weight loss sooner | weight loss ([1]; two-cycle study, doxorubicin 3 mg/kg/day, bioconjugate 24 mg/kg/day): significant weight loss | reduction of tumor size and delay of tumor growth ([1]; two-cycle treatment, study day 71, FIG. 11): extremely effective at reducing tumor size and delaying tumor growth | toxicity versus dose, as measured by percent mean body weight loss [2]: clear trend of increasing toxicity with increasing dose | MTD ([2]; mouse, in vivo, percent mean body weight loss, read-out: dose at which the conjugate was well tolerated (MTD study)): ≤ 48 mg/kg/day | cell viability / cytotoxicity ([3]; FIG. 6d and FIG. 8): very efficacious | cell viability / cytotoxicity ([3]; FIG. 6d and FIG. 8, listed as CobalaRubicin 200): same effectiveness as doxorubicin and is slightly less potent than doxorubicin | median time to endpoint (tumor 1.5 gm) [4, 8]: 62.1 days | time to endpoint longer than control [4, 8]: 44.3 days | treatment or nontreatment related deaths [4, 8]: no treatment or nontreatment related deaths | maximum body weight loss ([4]; 32 mg/kg/day x 5 days intravenous, day 9): −8.4% | long-term, tumor-free survivors [4, 9]: 4 mice | mice that developed complete regression [4, 9]: 6 mice | time to endpoint longer than the Doxorubicin active control ([4]; 32 mg/kg/day x 5 days intravenous, Doxorubicin 3 mg/kg/day): 22.6 days | toxicity ([4]; 64 mg/kg/day x 5 days intravenous, group terminated on Day 4): severe toxicity | efficacy compared with the free drug (tumor size versus days) ([4]; FIG. 9): much greater efficacy than the free drug | change in tumor size ([4]; at about 2-4 weeks after administration, FIG. 9): substantial decrease in tumor size | additional toxicity (body weight) from increased amount of doxorubicin in the conjugate ([4]; single-cycle study, FIG. 12a, 2.3-fold increase of doxorubicin): not associated with additional toxicity
